Measurements: ChEMBL document CHEMBL5257024, “Synthesis of α,β-Unsaturated Carbonyl-Based Compounds, Oxime and Oxime Ether Analogs as Potential Anticancer Agents for Overcoming Cancer Multidrug Resistance by Modulation of Efflux Pumps in Tumor Cells” (J Med Chem, 2016)
Activity calls are given as the source filed them. The calls are words filed in the database; no cut-off is given here.

What was measured:
[1] = system: PANC-1; assay: cells; conditions: Homo sapiens, PANC-1, 48 h
Description: Antiproliferative activity against human PANC-1 cells assessed as inhibition of cell growth incubated for 48 hrs by propidium iodide staining based fluorometer assay

[2] = system: HT-29; assay: cells; conditions: Homo sapiens, HT-29, 48 h
Description: Antiproliferative activity against human HT-29 cells assessed as inhibition of cell growth incubated for 48 hrs by propidium iodide staining based fluorometer assay

[3] = system: A549; assay: Antiproliferative activity against human A549 cells assessed as inhibition of cell growth incubated for 48 hrs by propidium iodide staining based fluorometer assay; assay type: functional; conditions: A549, 48 h
[4] = species on record: Sus scrofa; assay: Induction of pig brain microtubule stabilization at 25 uM measured after 15 mins by fluorescence based turbidimetry; assay type: tissue-based
[5] = Cytotoxicity against human MCF-10A cells assessed as cell viability incubated for 96 hrs by MTT assay; assay type: toxicity, cell-based; design: concentration or dose not given beside the values; conditions: read-out: Activity
[6] = system: MCF7; assay: Antiproliferative activity against human MCF7 cells assessed as inhibition of cell growth incubated for 48 hrs by propidium iodide staining based fluorometer assay; assay type: functional; conditions: MCF7, 48 h
[7] = system: PC-3; assay: cells; conditions: Homo sapiens, PC-3, 48 h
Description: Antiproliferative activity against human PC-3 cells assessed as inhibition of cell growth incubated for 48 hrs by propidium iodide staining based fluorometer assay

[8] = system: NCI-H460; assay: cells; conditions: Homo sapiens, NCI-H460, 48 h
Description: Antiproliferative activity against human NCI-H460 cells assessed as inhibition of cell growth incubated for 48 hrs by propidium iodide staining based fluorometer assay

[9] = system: MIA PaCa-2; assay: Antiproliferative activity against human MIA PaCa-2 cells assessed as inhibition of cell growth incubated for 48 hrs by propidium iodide staining based fluorometer assay; assay type: functional; conditions: MIA PaCa-2, 48 h

Row | SMILES | IC50 [1] | IC50 [2] | IC50 [3] | Activity [4] | viability at 96 h [5] | IC50 [6] | IC50 [7] | IC50 [8] | IC50 [9]
1 | CCN(CC)CCON=C1/C(=C/c2cc(OC)c(OC)c(OC)c2Br)CC(C)C/C1=C\c1cc(OC)c(OC)c(OC)c1Br (stereo unspecified) | 4.2 µM | 4.5 µM | 4.1 µM | inactive | 94% | 4.1 µM | 4.7 µM | 4.1 µM | 4.9 µM
2 | CCN(CC)CCO/N=C1\C(=C\c2cc(OC)c(OC)c(OC)c2Br)CCc2ccc([N+](=O)[O-])cc21 | 4.2 µM | 4.5 µM | 4.3 µM | – | 97% | 4.9 µM | 4.4 µM | 4.6 µM | 4 µM
3 | COc1cc(/C=C2\CCc3ccc(Cl)cc3C2=O)c(Br)c(OC)c1OC | 10.2 µM | 9.9 µM | 10.7 µM | – | 90% | 12.9 µM | 10.2 µM | 10.7 µM | 10.4 µM
4 | COc1ccc(/C=C2\COC/C(=C\c3ccc(OC)c(OC)c3Cl)C2=O)c(Cl)c1OC | 5.8 µM | 5.1 µM | 5.8 µM | – | 89% | 5.6 µM | 5.1 µM | 5.3 µM | 5.2 µM
5 | COc1cc(/C=C2\CCc3ccc(F)cc3C2=O)c(Br)c(OC)c1OC | 8.5 µM | 9.6 µM | 8.2 µM | – | 93% | 10.1 µM | 10.3 µM | 8.9 µM | 8.9 µM
6 | COc1ccc(/C=C2\CCc3ccc([N+](=O)[O-])cc3C2=O)c(Cl)c1OC | 1.9 µM | 1.9 µM | 1.9 µM | – | 90% | 2.3 µM | 1.6 µM | 1.8 µM | 1.7 µM
7 | COc1cccc(/C=C2\CC(C(C)C)C/C(=C\c3cccc(OC)c3Cl)C2=O)c1Cl (stereo unspecified) | 14.5 µM | 12.1 µM | 13.4 µM | – | 93% | 15.2 µM | 14.1 µM | 13.9 µM | 16.7 µM
8 | COc1cc(/C=C2\CNC/C(=C\c3cc(OC)c(OC)c(OC)c3Br)C2=O)c(Br)c(OC)c1OC | 4.2 µM | 4.5 µM | 4.4 µM | – | 96% | 4 µM | 4.8 µM | 4.9 µM | 4.3 µM
9 | COc1ccc2c(c1)CC/C(=C\c1ccc(OC)c(OC)c1Cl)C2=O | 2.1 µM | 2.7 µM | 2.9 µM | – | 89% | 2.6 µM | 2 µM | 2.6 µM | 2.3 µM
10 | COc1ccc(/C=C2\CC(C(C)C)C/C(=C\c3ccc(OC)c(OC)c3Cl)C2=O)c(Cl)c1OC (stereo unspecified) | 12.2 µM | 13.2 µM | 12.9 µM | – | 87% | 11.9 µM | 12.6 µM | 15.3 µM | 11.8 µM
11 | COc1cccc(/C=C2\CC(C)c3ccccc3C2=O)c1Cl (stereo unspecified) | 8.3 µM | 8.4 µM | 8.7 µM | – | 98% | 8.8 µM | 9.9 µM | 9.6 µM | 9.8 µM
12 | COc1cc(/C=C2\CC(C)C/C(=C\c3cc(OC)c(OC)c(OC)c3Br)C2=O)c(Br)c(OC)c1OC (stereo unspecified) | 1.6 µM | 1.8 µM | 1.8 µM | – | 91% | 1.3 µM | 1.1 µM | 1.2 µM | 1.4 µM
13 | COc1ccc2c(c1)CC/C(=C\c1cccc(OC)c1Cl)C2=O | 4.5 µM | 4.4 µM | 4.6 µM | – | 95% | 5.1 µM | 4.7 µM | 4.7 µM | 4 µM
14 | COc1cc(/C=C2\CCC/C(=C\c3cc(OC)c(OC)c(OC)c3Br)C2=NO)c(Br)c(OC)c1OC | 2.2 µM | 2.1 µM | 2.6 µM | – | 95% | 2.9 µM | 2.5 µM | 2.5 µM | 2.6 µM
15 | COc1cc2c(cc1OC)C(=O)/C(=C/c1ccc(OC)c(OC)c1Cl)CC2 | 5.4 µM | 5.2 µM | 5.4 µM | – | 97% | 5.4 µM | 5.2 µM | 5.8 µM | 5 µM
16 | COc1cccc(/C=C2\CCc3ccccc3C2=O)c1Cl | 27.5 µM | 28.2 µM | 25.1 µM | – | 92% | 26.7 µM | 28.5 µM | 25.1 µM | 27.9 µM
17 | COc1cccc(/C=C2\COC/C(=C\c3cccc(OC)c3Cl)C2=O)c1Cl | 8.9 µM | 8.8 µM | 8.4 µM | – | 88% | 7.3 µM | 8.3 µM | 7.4 µM | 8.7 µM
18 | COc1ccc(OC)c2c1CC/C(=C\c1cc(OC)c(OC)c(OC)c1Br)C2=O | 2.5 µM | 1.9 µM | 2.6 µM | – | 91% | 2.4 µM | 2.2 µM | 2.1 µM | 2.2 µM
19 | COc1cccc(/C=C2\CCc3ccc(F)cc3C2=O)c1Cl | 12.4 µM | 12.9 µM | 11.1 µM | – | 90% | 12.9 µM | 12.6 µM | 15.2 µM | 15.2 µM
20 | COc1ccc(/C=C2\CN(Cc3ccccc3)C/C(=C\c3ccc(OC)c(OC)c3Cl)C2=O)c(Cl)c1OC | 15.6 µM | 10.3 µM | 16.2 µM | – | 89% | 15.4 µM | 15.7 µM | 13.9 µM | 15.5 µM
21 | COc1cc2c(cc1OC)C(=O)/C(=C/c1cccc(OC)c1Cl)CC2 | 9.5 µM | 10.4 µM | 9.2 µM | – | 91% | 10.5 µM | 9.2 µM | 9.2 µM | 9.9 µM
22 | COc1ccc2c(c1)CC/C(=C\c1cc(OC)c(OC)c(OC)c1Br)C2=O | 1.4 µM | 1.5 µM | 1.9 µM | – | 90% | 1.9 µM | 1.5 µM | 1.9 µM | 1.6 µM
23 | COc1cc(/C=C2\CC(C)c3ccccc3C2=O)c(Br)c(OC)c1OC (stereo unspecified) | 2.4 µM | 2.9 µM | 2.6 µM | – | 92% | 2.1 µM | 2.4 µM | 2.2 µM | 2.3 µM
24 | COc1cccc2c1CC/C(=C\c1ccc(OC)c(OC)c1Cl)C2=O | 6.9 µM | 6.7 µM | 6.7 µM | – | 95% | 6.4 µM | 7.2 µM | 6.4 µM | 6.7 µM
25 | CCN(CC)CCO/N=C1\C(=C\c2ccc(OC)c(OC)c2Cl)CCc2ccc([N+](=O)[O-])cc21 | 6.9 µM | 7 µM | 7.1 µM | – | 94% | 6.6 µM | 6.4 µM | 7.2 µM | 6.6 µM
